In brackets after ≈: the same amount, converted by molar mass.
Assays:
Type in all cases: cell-based
[1] = test system: E. coli, S. salivarius, L. casei, B. longum or M. luteus; assay: Direct antibacterial activity, summary over all strains tested; settings: summary in words of Table 1
Method: (§1) The bioactivity of macrolide compounds against 4 strains of common gut bacteria (Escherichia coli, Streptococcus salivarius subsp. salivarius, Lactobacillus casei and Bifidobacterium longum subsp. infantis) and common mammalian skin isolate Micrococcus luteus, was assessed using the Minimum Inhibitory Concentration (MIC) assay. Bacterial strains were purchased from DSMZ (Brunswick, Germany) except M. luteus which was obtained from NCIMB, and stored in 20% glycerol at −80° C. Stock solutions (100% DMSO) of positive controls (azithromycin and erythromycin), and of test compounds 1 and 2 were diluted in broth to working stock concentrations of 256 μg/ml (final assay testing concentration range 128 μg/ml to 0.00391 μg/ml). Stock solutions of all other compounds were diluted in broth to working stock concentrations of 128 μg/ml (final assay testing concentration range 64 μg/ml to 0.00195 μg/ml). Bacterial strains were cultivated in appropriate broth in an anaerobic chamber at 37° C., except for M. luteus which was incubated aerobically at 37° C. 18 h cultures were diluted in broth to an OD595 of 0.1 and then further diluted 1:10. In 96-well plates, in duplicate, 200 μl working stock of test compound was transferred to well 1 and serially diluted (1:2) in broth. 100 μl bacterial suspension was aliquoted into each well and mixed thoroughly. Appropriate sterility controls were included and plates were incubated in an anaerobic chamber, or aerobically (M. luteus) at 37° C. for 18 h. The MIC was determined to be the concentration of test compound in the first well with no visible growth.

human TLR2 = biological target: T1, human TLR2 (Homo sapiens, UniProt O60603); assay: TLR2 reporter assay (HEK-293-TLR, SEAP); settings: for TLR2 stimulation: at concentrations up to 20 uM
T1 construct: host or cells: recombinant HEK-293-TLR cell lines
Method: Samples and controls were tested in duplicate on recombinant HEK-293-TLR cell lines using a cell reporter assay at Invivogen using their standard assay conditions. These cell lines functionally over-express human TLR2 protein as well as a reporter gene which is a secreted alkaline phosphatase (SEAP). The production of this reporter gene is driven by an NFkB inducible promoter. The TLR reporter cell lines activation results are given as optical density values (OD).
20 μl of each test article were used to stimulate the hTLR2 reporter cell lines in a 200 μl of final reaction volume. Samples were tested in duplicate, with at least two concentrations tested—20 uM and 10 uM.
Compounds were tested using a TLR2 reporter assay (see general methods) that measured for stimulation of the TLR2 receptor. Stimulatory effect was measured as an increase in optical density (OD) due to release of secreted alkaline phosphatase (SEAP) and is shown in table 4: […]

[2] = test system: Streptococcus salivarius subsp. salivarius; assay: Minimum Inhibitory Concentration (MIC) assay; settings: anaerobic, 37° C., 18 h
Method: as §1

[3] = test system: Bifidobacterium longum subsp. infantis; assay: Minimum Inhibitory Concentration (MIC) assay; settings: anaerobic, 37° C., 18 h
Method: as §1

Escherichia coli = assay: Minimum Inhibitory Concentration (MIC) assay; settings: anaerobic, 37° C., 18 h
Method: as §1

Lactobacillus casei = assay: Minimum Inhibitory Concentration (MIC) assay; settings: Lacticaseibacillus casei; anaerobic, 37° C., 18 h
Method: as §1

Micrococcus luteus = assay: Minimum Inhibitory Concentration (MIC) assay; settings: aerobic, 37° C., 18 h
Method: as §1

T1 sequence (O60603 21-784): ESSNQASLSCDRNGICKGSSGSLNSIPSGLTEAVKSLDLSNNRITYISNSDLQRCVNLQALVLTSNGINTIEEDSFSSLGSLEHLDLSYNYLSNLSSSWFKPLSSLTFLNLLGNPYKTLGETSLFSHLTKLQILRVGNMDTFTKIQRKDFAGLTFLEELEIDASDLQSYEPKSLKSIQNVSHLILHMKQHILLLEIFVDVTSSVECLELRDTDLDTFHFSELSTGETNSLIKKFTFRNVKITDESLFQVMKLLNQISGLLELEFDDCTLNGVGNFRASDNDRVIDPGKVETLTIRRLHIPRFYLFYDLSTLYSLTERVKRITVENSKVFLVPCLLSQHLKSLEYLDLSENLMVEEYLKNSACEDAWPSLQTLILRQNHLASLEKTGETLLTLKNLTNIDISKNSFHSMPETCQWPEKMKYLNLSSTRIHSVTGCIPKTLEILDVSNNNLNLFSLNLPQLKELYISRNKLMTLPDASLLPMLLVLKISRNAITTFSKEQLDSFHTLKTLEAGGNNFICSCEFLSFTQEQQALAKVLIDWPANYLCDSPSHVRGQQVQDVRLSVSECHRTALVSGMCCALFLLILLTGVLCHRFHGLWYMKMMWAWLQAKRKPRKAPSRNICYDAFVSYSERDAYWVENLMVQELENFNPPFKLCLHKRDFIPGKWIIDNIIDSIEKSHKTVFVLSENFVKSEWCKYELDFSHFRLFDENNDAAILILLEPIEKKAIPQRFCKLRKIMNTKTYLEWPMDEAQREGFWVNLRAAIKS

| OD after addition of 5 μM test article (human TLR2) | OD after addition of 10 μM test article (human TLR2) | OD after addition of 20 μM test article (human TLR2) | TLR2 stimulation (human TLR2) | lowest concentration at which TLR2 was stimulated (concentrations down to) (human TLR2) | MIC [2] | MIC [3] | MIC (Escherichia coli) | MIC (Lactobacillus casei) | MIC (Micrococcus luteus) | Compound | antibacterial activity against the bacterial strains tested [1] |
| --- | --- | --- | --- | --- | --- | --- | --- | --- | --- | --- | --- |
| −0.043 OD | −0.015 OD | −0.026 OD | little or no stimulation |  |  |  |  |  |  | CC[C@H]1OC(=O)[C@H](C)[C@@H](O[C@H]2CC(N(C)C)[C@H](O)C(C)O2)[C@H](C)[C@@H](O)[C@](C)(O)C[C@@H](C)C(=O)[C@H](C)[C@@H](O)[C@H]1C (stereo partly drawn) [Compound 3] | no antibacterial activity |
| 0.054 OD | 0.155 OD | 0.234 OD |  | 10 µM |  |  |  |  |  | CC[C@H]1OC(=O)[C@H](C)[C@@H](O[C@H]2CC(N(C)C)[C@H](O)C(C)O2)[C@H](C)[C@@H](O)[C@](C)(O)C[C@@H](C)N(C)C[C@H](C)[C@@H](O)[C@]1(C)O (stereo partly drawn) [Compound 17] |  |
|  |  |  |  |  | > 64 µg/mL | > 64 µg/mL | > 64 µg/mL | > 64 µg/mL |  | CC[C@H]1OC(=O)[C@H](C)[C@@H](O[C@H]2CC(NC)[C@H](O)C(C)O2)[C@H](C)[C@@H](O)[C@](C)(O)C[C@@H](C)C(=O)[C@H](C)[C@@H](O)[C@H]1C (stereo partly drawn) [Compound 6] | no antibacterial activity |
|  |  |  |  |  | > 64 µg/mL | > 64 µg/mL | > 64 µg/mL | > 64 µg/mL |  | CC(O)[C@H]1OC(=O)[C@H](C)[C@@H](O[C@H]2C[C@@H](N(C)C)[C@H](O)[C@@H](C)O2)[C@H](C)[C@@H](O)[C@](C)(O)C[C@@H](C)C(=O)[C@H](C)[C@@H](O)[C@H]1C (stereo partly drawn) [Compound 9, 14-hydroxy angolosamine erythronolide B] | no antibacterial activity |
|  |  |  |  |  | > 64 µg/mL | > 64 µg/mL | > 64 µg/mL | > 64 µg/mL |  | CC1O[C@@H](O[C@H]2[C@H](C)[C@@H](O)[C@](C)(O)C[C@@H](C)C(=O)[C@H](C)[C@@H](O)[C@@H](C)[C@@H](C3CCC3)OC(=O)[C@@H]2C)CC(N(C)C)[C@@H]1O (stereo partly drawn) [Compound 5] | no antibacterial activity |
| 0.035 OD | 0.065 OD | 0.045 OD | little or no stimulation |  | < 0.06 µg/mL | > 64 µg/mL | > 64 µg/mL | < 0.25 µg/mL | < 0.0625 µg/mL | CC[C@H]1OC(=O)[C@H](C)[C@@H](O[C@H]2C[C@@](C)(OC)[C@@H](O)[C@H](C)O2)[C@H](C)[C@@H](O[C@@H]2O[C@H](C)C[C@H](N(C)C)[C@H]2O)[C@](C)(O)C[C@@H](C)C(=O)[C@H](C)[C@@H](O)[C@]1(C)O [Erythromycin, reference compound] | potent activity against a number of the strains |
| 0.029 OD | 0.045 OD | 0.031 OD | little or no stimulation |  | < 0.5 µg/mL | > 64 µg/mL | < 8 µg/mL | < 1 µg/mL | 0.125 µg/mL (≈ 0.167 µM) | CC[C@H]1OC(=O)[C@H](C)[C@@H](O[C@H]2C[C@@](C)(OC)[C@@H](O)[C@H](C)O2)[C@H](C)[C@@H](O[C@@H]2O[C@H](C)C[C@H](N(C)C)[C@H]2O)[C@](C)(O)C[C@@H](C)CN(C)[C@H](C)[C@@H](O)[C@]1(C)O [Azithromycin, reference compound] | potent activity against a number of the strains |
|  |  |  |  |  | > 64 µg/mL | > 64 µg/mL | > 64 µg/mL | > 64 µg/mL |  | CC[C@H]1OC(=O)[C@H](C)[C@@H](O[C@H]2CC(N(C)C)[C@H](O)C(C)O2)[C@H](C)[C@@H](O)[C@](C)(O)C[C@@H](C)CN(C)[C@H](C)[C@@H](O)[C@H]1C (stereo partly drawn) [Compound 4] | no antibacterial activity |
|  |  |  |  |  | > 64 µg/mL | > 64 µg/mL | > 64 µg/mL | > 64 µg/mL |  | CC1O[C@@H](O[C@H]2[C@H](C)[C@@H](O)[C@](C)(O)C[C@@H](C)C(=O)[C@H](C)[C@@H](O)[C@@H](C)[C@@H](C)OC(=O)[C@@H]2C)CC(N(C)C)[C@@H]1O (stereo partly drawn) [Compound 8] | no antibacterial activity |
